Consider 16 molecules from PubChem BioAssay (NCI).

Structures are written as SMILES. Where “and” joins values, the source holds several entries; their conditions need not be identical. Equal values may be shown once.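 1) Cells in 96-well plates. 2) Compound, 48 h, 5 concentrations. 3) Linear interpolation between surrounding doses. 4) Unreached endpoint = highest concentration. The concentration for 50% growth inhibition is given as GI50. TGI marks complete inhibition of growth.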 Some results are limits rather than exact numbers.

Common to all, as to experiment: inhibition of tumour cell growth, NCI panel, 48 h
Experiment [1] has as its system EKVX NSCLC.
Experiment [2] deals with HCT-15 colon.
Experiment [3] concerns HOP-62 NSCLC.
The test system of experiment [4] is K-562 leukemia.
The test system of experiment [5] is MDA-MB-435.
In experiment [6] the test system is NCI-H460 lung.
The subject of experiment [7] is SK-MEL-2 melanoma.
Experiment [8] relates to SK-MEL-28 melanoma.
Experiment [9] concerns SNB-19 CNS.
In experiment [10] the test system is SW-620 colon.

With `ClCc1cccc(Cn2cnc3c(NC45CC6CC(CC(C6)C4)C5)ncnc32)c1`, the GI50 in experiment [1] was 18.6 µM; in experiment [2] it was 20.4 µM; in experiment [3], 20.5 µM; in experiment [4], 1.89 µM; in experiment [5], 13.4 µM; in experiment [6], 16 µM. Moreover, the GI50 was 16.7 µM in experiment [7], 25 µM in experiment [8], 17.2 µM in experiment [9] and 19.1 µM in experiment [10]. Further, the TGI in experiment [1] was 40.7 µM; in experiment [2], 47.5 µM; in experiment [3] it was 37.5 µM; in experiment [4], 29.4 µM; in experiment [5] it was 29.8 µM; in experiment [6] it was 43 µM. Also, the TGI in experiment [7] was 48.1 µM; in experiment [8], more than 78.7 µM; in [9] it was 44.2 µM; in experiment [10], 46.2 µM.
In the case of `CCOC(=O)Nc1nc2ccc(Cn3cccc3)cc2[nH]1`, the TGI in [1] was more than 100 µM; in [2], more than 100 µM; in [3] it was more than 67.1 µM; in experiment [4], more than 100 µM; in experiment [5], 0.731 µM; in experiment [6] it was more than 100 µM. For the same molecule, the TGI in experiment [7], in [8], in [9] and in [10] was more than 100 µM each time.
As for `Nc1ccc(N(S(=O)(=O)c2ccccc2)S(=O)(=O)c2ccccc2)c(Cl)c1`, the TGI in experiment [1], in [2], in experiment [3], in [4], in experiment [5] and in [6] was more than 100 µM in each case. The TGI in experiment [7], in [8], in experiment [9] and in [10] was more than 100 µM throughout.
With `CSc1ccc(C2=NN(C(=O)c3ccc(F)cc3)C(c3ccc(F)cc3)C2)cc1` (stereo unspecified), the GI50 was 18.9 µM in [1]; 5.39 µM in [2]; 18.4 µM in experiment [3]; 3.91 µM in [4]; 10.6 µM in experiment [5]; 13 µM in experiment [6]. The GI50 in experiment [7] is 18.8 µM; in experiment [8], 18.3 µM; in [9] it was 14.3 µM; in experiment [10], 14.2 µM. The TGI in experiment [1] turned out to be 37 µM; in experiment [2] it was 20.5 µM; in experiment [3], 33.7 µM; in experiment [4], 16.6 µM; in experiment [5] it was 26.8 µM; in experiment [6], 28.7 µM. The TGI in experiment [7] was determined as 34.6 µM; in experiment [8], 32.6 µM; in experiment [9], 27.5 µM; in experiment [10], 34.2 µM.
For the molecule `Cc1cc(I)cc(CN(C)CCCN2CCSCC2)c1O`, the GI50 in experiment [1] was 29.4 µM; in [2], 17.8 µM; in [3], 18.4 µM; in experiment [4] it was 14.2 µM; in experiment [5] it was 23.2 µM; in experiment [6], 17.8 µM. The GI50 in experiment [7] was 19.2 µM; in [8], 27.9 µM; in experiment [9], 25.6 µM; in experiment [10], 19.4 µM. In addition, the TGI in experiment [1] was more than 100 µM; in [2], 37.2 µM; in [3] it was 41.9 µM; in experiment [4], 32.6 µM; in experiment [5], 57.5 µM; in experiment [6] it was 40.2 µM. Also, the TGI in experiment [7] was determined as 39.9 µM; in experiment [8] it was 87.6 µM; in [9], 55.6 µM; in experiment [10], 38.9 µM.
As for `COc1cc(C(=O)/C(C)=C/c2c[nH]c3ccccc23)cc(OC)c1OC`, the GI50 in experiment [1] is 0.0053 µM; in experiment [2] it was 0.0034 µM; in experiment [3] it was 0.00541 µM; in experiment [4], 0.00346 µM; in [5] it was 0.00232 µM; in experiment [6], 0.00369 µM. In addition, the GI50 in [7] was 0.0123 µM; in experiment [8] it was 0.0175 µM; in experiment [9] it was 0.00406 µM; in experiment [10] it was 0.00416 µM. The TGI is more than 100 µM in experiment [1]; more than 100 µM in [2]; 11.9 µM in experiment [3]; more than 100 µM in [4]; 0.00633 µM in [5]; more than 100 µM in experiment [6]. In addition, the TGI was 15.2 µM in experiment [7], more than 100 µM in experiment [9] and more than 100 µM in [10].
Turning to `O=C(O[C@H]1CN[C@H](C#Cc2cc3ncnc(Nc4ccc5c(ccn5Cc5cc(F)ccc5F)c4)c3s2)C1)N1CCOCC1`, the GI50 was 0.119 µM in experiment [1]; 3.55 µM in experiment [2]; 3.22 µM in experiment [3]; 6.49 µM in experiment [4]; 5.13 µM in experiment [5]; 5.17 µM in experiment [6]. Further, the GI50 in experiment [7] was 5.35 µM; in experiment [8], 4.06 µM; in experiment [9], 4.46 µM; in experiment [10], 5.16 µM. In addition, the TGI in experiment [1] was 2.04 µM; in experiment [2] it was 17.5 µM; in experiment [3], 8.06 µM; in [4] it was more than 25 µM; in experiment [5], 18.2 µM; in experiment [6], 14 µM. Moreover, the TGI in [7] is 12.7 µM; in [8] it was 7.98 µM; in experiment [9] it was more than 25 µM; in [10] it was 15.1 µM.
Consider `COC(=O)c1cc2c(cc1Cl)SC(N(N(C)C)S(=O)(=O)c1ccc(Br)s1)=NS2(=O)=O`, for which the GI50 in [1] was 25.3 µM; in experiment [2] it was 18 µM; in experiment [3], 31.1 µM; in experiment [4], 16.1 µM; in [5], 23.1 µM; in experiment [6], 22.4 µM. Further, the GI50 was 3.2 µM in [7], 17.8 µM in experiment [8], 21.2 µM in [9] and 18.6 µM in experiment [10]. The TGI is 61 µM in [1]; 33.6 µM in [2]; more than 100 µM in [3]; 33.6 µM in experiment [4]; 49.7 µM in experiment [5]; 43.9 µM in experiment [6]. Further, the TGI in experiment [7] came to 9.66 µM; in experiment [8], 35.3 µM; in [9], 58.4 µM; in experiment [10], 36.3 µM.
As for `O=c1c2cc(Cl)ccc2oc2ccc(OCCCCCN3CCCCC3)cc12`, the GI50 is 6.25 µM in [1]; 1.26 µM in experiment [2]; 7.03 µM in experiment [3]; 1.76 µM in [4]; 1.02 µM in experiment [5]; 1.73 µM in [6]. Further, the GI50 in experiment [7] was 2.09 µM; in experiment [8] it was 1.09 µM; in experiment [9] it was 6.83 µM; in experiment [10], 1.55 µM. Also, the TGI stood at 13.2 µM in [1]; 3.45 µM in experiment [2]; 14.4 µM in experiment [3]; 7.55 µM in experiment [4]; 2.37 µM in experiment [5]; 5.55 µM in experiment [6]. Moreover, the TGI in experiment [7] is 7.96 µM; in experiment [8] it was 2.66 µM; in experiment [9] it was 13.5 µM; in experiment [10], 5.09 µM.
In the case of `O=Cc1ccc(-c2cc(C=O)c(-c3cccs3)[nH]2)s1`, the GI50 in [1] was 47.8 µM; in experiment [2] it was 74.8 µM; in [3], more than 100 µM; in experiment [4] it was 77.5 µM; in [5] it was 43.7 µM; in [6] it was 48.2 µM. Further, the GI50 in [7], in [8], in [9] and in [10] was more than 100 µM throughout. For the same molecule, the TGI was 75 µM and > 100 µM in [1]; 75 µM and > 100 µM in [2]; 72.5 µM and > 100 µM in experiment [3]; 75 µM and > 100 µM in [4]; 75 µM and > 100 µM in [5]; 75 µM and > 100 µM in [6]. Besides, the TGI in [7] is 75 µM and > 100 µM; in experiment [8], 75 µM and > 100 µM; in experiment [9], 75 µM and > 100 µM; in experiment [10], more than 100 µM.
Consider `Cc1c[nH]c2c(O)cc3c(c12)[C@H](CCl)CN3C(=O)c1cc2cc(NC(=O)Nc3ccc4[nH]c(C(=O)N5C[C@@H](CCl)c6c5cc(O)c5[nH]cc(C)c65)cc4c3)ccc2[nH]1`, for which the TGI in [1] is 7.21 nM and > 100 µM and 9.5e-07 µg/mL; in experiment [2], > 100 µM and 0.00213 µg/mL; in experiment [3], 18.9 µM and 8.9e-07 µg/mL and 0.000888 µg/mL; in experiment [7], 89.3 µM and 8.9e-06 µg/mL and 0.00276 µg/mL. Further, the GI50 in [2] is 47.9 µM and 0.000888 µg/mL; in [5], 0.0146 µM; in [10], 0.0068 µM.
On to `CC(C)(C#N)c1cc(Cn2cncn2)cc(C(C)(C)C#N)c1`, for which the GI50 in experiment [1] is 400 µM; in experiment [2], more than 10000 µM; in experiment [3] it was 921 µM; in experiment [5], more than 10000 µM; in [6] it was 3990 µM; in experiment [8], more than 10000 µM. For the same molecule, the GI50 in experiment [9] and in experiment [10] was more than 10000 µM throughout. Moreover, the TGI in experiment [1] was more than 10000 µM; in experiment [2] it was more than 10000 µM; in experiment [3], more than 10000 µM; in experiment [5], more than 10000 µM; in experiment [6] it was more than 10000 µM; in experiment [7], 3590 µM. The TGI in [8], in experiment [9] and in experiment [10] was more than 10000 µM each time.
Take `CN1CCN(CCCN)CC1`: the TGI in experiment [1], in experiment [2], in [3], in experiment [4], in [5] and in experiment [7] was more than 100 µM each time. Further, the TGI in experiment [8], in [9] and in experiment [10] was more than 100 µM in each case.
As for `Cc1cc(C)c([O-])c(CN(C)CCN(C)Cc2cc(C)cc(C)c2[O-])c1.O=C([O-])c1cccc(C(=O)[O-])n1.[Ti+4]`, the GI50 was 3.4 µM in experiment [1]; 3.5 µM in experiment [2]; 2.92 µM in [3]; 2.67 µM in experiment [4]; 2.89 µM in experiment [5]; 2.01 µM in [6]. The GI50 in experiment [8] was 2.42 µM; in experiment [9] it was 3.25 µM; in [10], 2.89 µM. Also, the TGI is more than 100 µM in [1]; more than 100 µM in experiment [2]; 8.47 µM in experiment [3]; more than 100 µM in experiment [4]; more than 100 µM in experiment [5]; more than 100 µM in experiment [6]. Besides, the figures for the TGI in [8], in experiment [9] and in experiment [10] were 8.37 µM, more than 100 µM and more than 100 µM, respectively.
For `O=C(/C=C/c1ccc(F)cc1)c1ccc(Cl)cc1Cl`, the GI50 in experiment [1] is 89.9 µM; in experiment [2], 43.8 µM; in [3] it was more than 100 µM; in experiment [4], 33.9 µM; in [5], 50 µM; in experiment [6], 65.6 µM. For the same molecule, the GI50 in experiment [7] is more than 100 µM; in experiment [9] it was 23.7 µM; in [10], 29.7 µM. In addition, the TGI in experiment [1], in [2], in experiment [3], in [4], in experiment [5] and in experiment [6] was more than 100 µM each time. The TGI in experiment [7] was more than 100 µM; in experiment [9], 77.8 µM; in experiment [10], 79.2 µM.
Consider `CCOC(=O)C(Cc1c[nH]c2ccc(N)cc12)(NC(C)=O)C(=O)OCC`, for which the GI50 in [1], in [2], in experiment [3], in experiment [4], in experiment [5] and in [6] was more than 1000 µM each time. In addition, the GI50 in [8], in experiment [9] and in [10] was more than 1000 µM each time. The TGI in experiment [1], in experiment [2], in experiment [3], in experiment [4], in experiment [5] and in experiment [6] was more than 1000 µM in each case. Besides, the TGI in [8], in experiment [9] and in experiment [10] was more than 1000 µM throughout.
